Measured values taken from US5167616A, “Iontophoretic delivery method” (priority 1989, dated 1992).
“And” between values parts separate entries of the source, which are not always exact repeats. Equal values may be shown once.

Experiment: Iontophoretic transdermal flux of metoclopramide through human cadaver skin (heat-stripped epidermis, two-compartment permeation test cell)
Type: in vitro ADME
Settings: for Ratio of Average Flux-to-Power: power from voltage at 3.75 hours
Procedure: The transdermal flux of metoclopramide HC1 through samples of human cadaver back skin was measured using a polycarbonate test cell in which the skin sample to be tested is secured between a donor compartment and a receptor compartment. […] The area of the skin samples available for transport was 1.26 cm^2. The test cell device was maintained at a temperature of 32° C. using an aluminum block heat exchanger. An anode comprising a disk of silver foil having a thickness of 0.025 mm was present in the donor compartment while a cathode comprising a sintered disk of powdered silver metal and silver chloride was present in the receptor compartment. Thus, the reduction of silver ions to silver metal occurred at the cathode, while the oxidation of silver to silver ions took place at the anode.
Human cadaver skin was used for the permeation studies. Before securing the skin samples between the donor and the receptor compartment of the test cell, the skin was first heat-stripped by immersing the skin sample in water maintained at 60° C. for 90 seconds allowing the epidermis layer to be separated from the dermis. Circular epidermis samples having a diameter of 2.22 cm were cut using a gasket cutting punch. The epidermis samples were then mounted in the permeation test cell with the stratum corneum side facing the donor compartment.
The electrodes of the test cell were then connected to a Model 363 Potentiostat/Galvanostat, made by EG&G Princeton Applied Research, Princeton, NJ, which supplied a constant level of direct current of 126 μA or 100 μA/cm^2.
The test cell was in operation for four hours with each skin sample. During operation, metoclopramide was iontophoretically delivered from the donor solution through the cadaver skin into the receptor solution. The receptor solution was sampled once every hour over the four hour period. The entire volume (2 ml) of receptor solution was collected and replaced with fresh solution at each sampling point. The metoclopramide concentration in the receptor solution was determined by UV absorbance at 310 nm using a spectrophotometer manufactured by Hewlett Packard, of Palo Alto, CA, Model No. 8452A. Each flux data point shown in FIG. 4 was an average value from three skin specimens, all three specimens having been taken from the same cadaver.
The voltage for each skin sample was monitored throughout the experiment. A representative voltage was measured at 3.75 hours after start of operation for each skin sample and is recorded in Table 2. The power was calculated by multiplying the measured voltage at 3.75 hours by the applied current (i.e., 100 μA/cm^2).
The same equipment and procedures described in Example 1 were used to test human cadaver skin taken from the following sites of the same cadaver tested in Example 1: abdomen, upper arm, forearm, chest and hip/thigh. The average flux of metoclopramide through these skin sites is also plotted in FIG. 4. […] In general, the flux of metoclopramide through back skin was about 50% to 150% higher than the metoclopramide flux through the other tested skin sites.

SMILES: CCN(CC)CCNC(=O)c1cc(Cl)c(N)cc1OC [metoclopramide]
- Flux through back skin, increase over flux through the other tested skin sites: 50-150%
- Flux through human back skin compared with the other tested skin sites (in words): significantly higher flux
- Average Ratio of Average Flux-to-Power (Abdomen skin, mean of 3 samples): 336 μg/cm^2 · hr .multido
- Ratio of Average Flux-to-Power (Abdomen skin): 347 μg/cm^2 · hr .multido and 277 μg/cm^2 · hr .multido and 384 μg/cm^2 · hr .multido
- Average Ratio of Average Flux-to-Power (Back skin, mean of 6 samples): 431 μg/cm^2 · hr .multido
- Average Ratio of Average Flux-to-Power (Chest skin, mean of 3 samples): 204 μg/cm^2 · hr .multido
- Ratio of Average Flux-to-Power (Chest skin): 205 μg/cm^2 · hr .multido and 196 μg/cm^2 · hr .multido and 211 μg/cm^2 · hr .multido
- Average Ratio of Average Flux-to-Power (Forearm skin, mean of 3 samples): 230 μg/cm^2 · hr .multido
- Average Ratio of Average Flux-to-Power (Hip/Thigh skin, mean of 3 samples): 222 μg/cm^2 · hr .multido
- Ratio of Average Flux-to-Power (Hip/Thigh skin): 164 μg/cm^2 · hr .multido and 305 μg/cm^2 · hr .multido and 197 μg/cm^2 · hr .multido
- Average Ratio of Average Flux-to-Power (Upper Arm skin, mean of 2 samples): 307 μg/cm^2 · hr .multido
- Average ratio of average flux-to-power, ranking of skin sites (in words) (back skin, followed by the abdomen and upper arm, Table 2): highest average ratio of average flux-to-power
